Where two headings read alike, the source gives them in different places.

Results on five molecules are retold here after US8067424B2, “Selective inhibitors for cyclin-dependent kinases” (Emory University, priority 2007, dated 2011).

Holding throughout (assay type): biochemical
In assay [1] the target is NEK6 (Homo sapiens, UniProt Q9HC98). In words: Kinase screen: NEK6 assay. The procedure: (§1) Generally, the same procedure was used for all assays. Since the total assay volume was 25.5 microliters, 0.5 microliters of inhibitors at 51× assay concentration were added to the plates before any other addition.
Sequence of NEK6 (Q9HC98 whole entry, species assumed): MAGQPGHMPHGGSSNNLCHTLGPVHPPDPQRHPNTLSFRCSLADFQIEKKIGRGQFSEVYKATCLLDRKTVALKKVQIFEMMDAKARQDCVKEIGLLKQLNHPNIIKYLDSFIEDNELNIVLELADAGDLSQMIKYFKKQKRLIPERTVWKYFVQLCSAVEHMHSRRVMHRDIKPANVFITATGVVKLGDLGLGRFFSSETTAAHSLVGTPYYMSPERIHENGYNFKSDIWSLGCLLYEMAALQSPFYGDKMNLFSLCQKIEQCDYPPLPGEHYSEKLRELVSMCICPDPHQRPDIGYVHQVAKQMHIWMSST
(§2) The basic procedure was to add 0.5 microliters inhibitor/control in DMSO to plate. Fifteen microliters of enzyme/substrate/buffer mix were added and incubated for 5 min. Ten microliters MgATP at the relevant concentration were added and incubated for 30 min. The assay was stopped by adding 5 microliters of 3% orthophosphoric acid. The assay was transferred to a p81 filter plate and read in a scintillation counter of 30 sec/well. Note that this assay procedure was not followed for MKK1, which instead involved a two-step assay, and PKC alpha, which required the addition of lipid vesicles.
(500-1000 cpm/pmole) and incubated for 30 min at room temperature. Assays were stopped by addition of 5 μl of 0.5 M (3%) orthophosphoric acid and then harvested onto P81 Unifilter plates with a wash buffer of 50 mM orthophosphoric acid.

Assay [2] has as its target MAPKAP-K2 (Homo sapiens, UniProt P49137). In words: Kinase screen: MAPKAP-K2 assay. The procedure:
as §1, §2
MAPKAP-K2 assay: MAPKAP-K2 (5-20 mU diluted in 20 mM MOPS pH 7.5, 1 mM EDTA, 0.01% Brij35, 5% glycerol, 0.1% b-mercaptoethanol, 1 mg/ml BSA) was assayed against […] (SEQ ID NO: 3) in a final volume of […] containing 50 mM Na-b-glycerophosphate pH 7.5, 0.5 mM EDTA, 30 μM substrate peptide, 10 mM magnesium acetate and 0.02 mM [33P-g-ATP] (50-1000 cpm/pmole) and incubated for 30 min at room temperature. Assays were stopped by addition of 5 μl of 0.5 M (3%) orthophosphoric acid and then harvested onto P81 Unifilter plates with a wash buffer of 50 mM orthophosphoric acid.

Assay [3] has as its target CDK 5 (Homo sapiens, UniProt Q00535). In words: CDK5 in vitro kinase inhibition (protocol similar to Example 14). The note with it: for remaining activity at 0.1 µM: 100 nM, mean of three (standard deviation), read-out: CDK5 % remaining kinase activity after incubation with 100 nM of compound; for IC50: Table 7, mean of three experiments.
In assay [4] the target is T1, EPH-B3 (Homo sapiens, UniProt P54753).
T1 sequence (P54753 34-998): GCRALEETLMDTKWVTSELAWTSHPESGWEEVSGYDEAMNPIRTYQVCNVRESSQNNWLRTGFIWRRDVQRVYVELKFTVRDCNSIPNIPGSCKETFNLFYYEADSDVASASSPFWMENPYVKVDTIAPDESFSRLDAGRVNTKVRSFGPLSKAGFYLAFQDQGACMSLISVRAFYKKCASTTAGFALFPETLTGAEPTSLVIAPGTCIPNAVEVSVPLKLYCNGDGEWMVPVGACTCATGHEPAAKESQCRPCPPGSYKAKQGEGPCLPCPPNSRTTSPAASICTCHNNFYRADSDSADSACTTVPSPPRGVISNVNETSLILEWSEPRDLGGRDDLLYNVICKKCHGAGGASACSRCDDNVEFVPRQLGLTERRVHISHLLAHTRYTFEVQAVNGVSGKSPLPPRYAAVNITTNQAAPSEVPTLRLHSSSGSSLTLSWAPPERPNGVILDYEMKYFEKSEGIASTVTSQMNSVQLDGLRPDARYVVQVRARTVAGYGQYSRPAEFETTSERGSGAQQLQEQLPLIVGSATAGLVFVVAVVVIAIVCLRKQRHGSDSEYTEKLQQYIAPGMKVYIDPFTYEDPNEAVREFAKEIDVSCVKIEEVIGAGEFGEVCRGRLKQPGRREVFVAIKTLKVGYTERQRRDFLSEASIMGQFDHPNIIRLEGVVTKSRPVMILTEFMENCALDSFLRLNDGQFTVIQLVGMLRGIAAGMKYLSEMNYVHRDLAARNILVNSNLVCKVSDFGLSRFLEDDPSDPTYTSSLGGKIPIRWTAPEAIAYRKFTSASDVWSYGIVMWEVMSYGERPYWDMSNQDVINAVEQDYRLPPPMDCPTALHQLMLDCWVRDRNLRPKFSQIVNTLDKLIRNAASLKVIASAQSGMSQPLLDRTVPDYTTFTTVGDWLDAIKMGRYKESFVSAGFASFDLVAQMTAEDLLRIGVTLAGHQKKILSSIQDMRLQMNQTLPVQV
Briefly: Kinase screen: EPH-B3 assay. The note with it: 10 micromolar compound; for remaining activity at 10 µM: read-out: mean activity remaining (as a percentage of the original activity), EPH-B3. The procedure: as §1, §2
EPH-B3 assay: EPH-B3 (5-20 mU diluted in 50 mM Tris pH 7.5, 0.1 mM EGTA, 1 mg/ml BSA) was assayed against a substrate peptide (Poly Glut Tyr) in a final volume of 25.5 μl containing 50 mM Tris pH 7.5, 1 mg/ml substrate peptide, 10 mM magnesium acetate and 0.005 mM [33P-g-ATP] (50-1000 cpm/pmole) and incubated for 30 min at room temperature. Assays were stopped by addition of 5 μl of 0.5 M (3%) orthophosphoric acid and then harvested onto P81 Unifilter plates with a wash buffer of 50 mM orthophosphoric acid.

Where [5] appears, read: 10 micromolar compound, read-out: mean activity remaining (as a percentage of the original activity), NEK 6.
Where [6] appears, read: 10 micromolar compound, read-out: mean activity remaining (as a percentage of the original activity), MAPKAP-K2.

Sequence of MAPKAP-K2 (P49137 whole entry, species assumed): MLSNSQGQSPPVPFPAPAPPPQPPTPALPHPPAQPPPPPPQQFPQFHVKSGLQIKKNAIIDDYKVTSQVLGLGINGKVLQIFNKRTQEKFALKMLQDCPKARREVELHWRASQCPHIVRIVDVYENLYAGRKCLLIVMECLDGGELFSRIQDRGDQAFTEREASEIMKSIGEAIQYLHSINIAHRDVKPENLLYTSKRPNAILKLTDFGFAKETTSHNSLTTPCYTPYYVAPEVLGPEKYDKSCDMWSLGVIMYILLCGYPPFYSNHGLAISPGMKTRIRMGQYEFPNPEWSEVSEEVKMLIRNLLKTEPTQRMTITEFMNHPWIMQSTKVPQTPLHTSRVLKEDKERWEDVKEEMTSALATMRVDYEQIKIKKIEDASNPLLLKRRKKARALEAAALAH
Sequence of CDK 5 (Q00535 whole entry): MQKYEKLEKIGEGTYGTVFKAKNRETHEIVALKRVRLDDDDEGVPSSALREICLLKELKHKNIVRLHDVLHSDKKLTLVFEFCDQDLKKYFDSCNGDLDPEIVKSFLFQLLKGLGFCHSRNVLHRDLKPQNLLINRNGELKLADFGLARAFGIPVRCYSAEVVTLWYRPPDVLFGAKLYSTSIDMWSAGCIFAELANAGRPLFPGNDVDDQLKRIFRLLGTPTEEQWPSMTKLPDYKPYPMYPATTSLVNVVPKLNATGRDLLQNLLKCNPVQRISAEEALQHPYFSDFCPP
Sequence of CDK 5 (Q15078 whole entry partner): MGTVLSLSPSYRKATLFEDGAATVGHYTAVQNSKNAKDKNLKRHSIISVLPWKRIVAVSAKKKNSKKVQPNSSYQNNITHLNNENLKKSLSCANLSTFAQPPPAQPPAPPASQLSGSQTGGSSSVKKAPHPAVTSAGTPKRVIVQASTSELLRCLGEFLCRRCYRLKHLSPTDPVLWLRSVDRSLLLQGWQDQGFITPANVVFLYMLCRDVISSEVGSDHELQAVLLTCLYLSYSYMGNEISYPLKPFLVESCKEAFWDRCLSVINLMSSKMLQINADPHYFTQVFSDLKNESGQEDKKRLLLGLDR

As to `CC(C)c1cnn2c(NCc3ccccc3)cc(NCCCCCCCN)nc12` [BS-181], the remaining activity (in general, the signal under treatment as a percentage of the control signal) at 10 µM in assay [1] (NEK6, 10 μM, read-out: Mean Remaining Enzyme Activity (%)) is 85%; in assay [2] (MAPKAP-K2, 10 μM, read-out: Mean Remaining Enzyme Activity (%)), 88%.
As to `C=C[C@H](CO)Nc1cc(NCc2ccccc2)n2ncc(C(C)C)c2n1` [ICEC0065], the remaining activity at 10 µM in assay [1] (setting [5]) came out at 105%; in assay [2] (setting [6]), 111%; in assay [4], 83%. The remaining activity at 0.1 µM in assay [3] is 83%. In assay [3], the IC50 (in general, the concentration needed to halve the response being measured) is more than 1000 nM.
For the molecule `CC(C)c1cnn2c(NCc3ccccc3)cc(N[C@@H](CO)[C@H](O)CO)nc12` [ICEC0318, (3S)-3-(7-(Benzylamino)-3-isopropylpyrazolo[1,5-a]pyrimidin-5-ylamino)butane-1,2,4-triol], the remaining activity at 10 µM in assay [1] (setting [5]) was 87%; in assay [2] (setting [6]), 111%; in assay [4] it was 72%. Further, the remaining activity at 0.1 µM in assay [3] was 14%. Besides, the concentration for half-maximal inhibition (IC50) in assay [3] is 30 nM.
With `CC(C)c1cnn2c(NCc3ccccc3F)cc(NCCCCCN)nc12` [ICEC-0232], the “mean activity remaining (as a percentage of the original activity), NEK 6” value in assay [1] (10 micromolar compound) was 74%. In addition, the “mean activity remaining (as a percentage of the original activity), MAPKAP-K2” value in assay [2] (10 micromolar compound) is 88%. In assay [4], the “mean activity remaining (as a percentage of the original activity), EPH-B3” value came to 88%.
`CC[C@H](CO)Nc1cc(NCc2ccccc2)n2ncc(C(C)C)c2n1` [ICEC0067]: the remaining activity at 10 µM is 101% in assay [1] (setting [5]), 110% in assay [2] (setting [6]) and 79% in assay [4]. In assay [3], the remaining activity at 0.1 µM stood at 84%.
